Data taken from patent US20200138827A1, “SMALL MOLECULE MODULATORS OF HUMAN STING” (Curadev Pharma Limited, priority 2017, published 2020).
Where two headings read alike, the source gives them in different places.

What was measured:
IRF pathway = experiment: Reporter gene expression assay in THP1-Dual cells, IRF axis (secreted Lucia luciferase); assay type: cell-based, human; conditions: read-out: THP-IRF activity (EC50 range)
Method in brief: (§1)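 THP-1-derived cells carrying inducible NF-κB-SEAP and IRF-Lucia reporters, seeded at 5×10^5 and stimulated with compounds. After […], supernatant SEAP read with QUANTI-Blue and Lucia luciferase with QUANTI-Luc.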

NF-κB pathway = experiment: Reporter gene expression assay in THP1-Dual cells, NFkB axis (secreted SEAP); assay type: cell-based, human; conditions: read-out: THP-NFKB activity (EC50 range)
Method in brief: as §1

hSTING(H232) = molecular target: T1, hSTING(H232) (Homo sapiens, UniProt Q86WV6); experiment: Luciferase reporter assay in HEK293T-hSTING-Luciferase cells, H232 polymorph; assay type: cell-based; conditions: 20 hr stimulation, read-out: H232 activity (EC50 range)
T1 construct: host or cells: HEK293T
T1 sequence (Q86WV6 whole entry): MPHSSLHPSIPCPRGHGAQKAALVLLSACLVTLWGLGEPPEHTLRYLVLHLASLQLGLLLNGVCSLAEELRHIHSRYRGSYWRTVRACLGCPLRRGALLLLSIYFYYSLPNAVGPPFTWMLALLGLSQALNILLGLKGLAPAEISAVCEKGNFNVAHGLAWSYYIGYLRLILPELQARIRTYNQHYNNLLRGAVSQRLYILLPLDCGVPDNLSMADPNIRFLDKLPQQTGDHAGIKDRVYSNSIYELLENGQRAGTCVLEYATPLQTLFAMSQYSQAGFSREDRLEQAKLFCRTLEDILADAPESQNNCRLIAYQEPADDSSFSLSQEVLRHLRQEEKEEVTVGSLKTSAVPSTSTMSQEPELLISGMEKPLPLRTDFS
Method in brief: (§2)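 HEK293T clones stably expressed the given human STING variant plus luciferase under an ISRE/ISG54 IRF-inducible promoter. 5×10^5 cells were stimulated with compound for 20 hr, and secreted luciferase in the supernatant was measured by Quanti-Luc luminescence.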

hSTING(HAQ) = molecular target: T2, hSTING(HAQ) (Homo sapiens, UniProt Q86WV6, G230A/H232R/R293Q/R71H); experiment: Luciferase reporter assay in HEK293T-hSTING-Luciferase cells, HAQ polymorph; assay type: cell-based; conditions: 20 hr stimulation, read-out: HAQ activity (EC50 range)
T2 construct: host or cells: HEK293T
T2 sequence (Q86WV6 whole entry R71H/G230A/H232R/R293Q): as the sequence (Q86WV6 whole entry) above, with R71H, G230A, H232R, R293Q counted along it
Method in brief: as §2

WT/R232 STING protein = molecular target: T3, WT/R232 STING protein (Homo sapiens, UniProt Q86WV6, H232R); experiment: Luciferase reporter assay in HEK293T-hSTING-Luciferase cells, WT/R232; assay type: cell-based; conditions: 20 hr stimulation, read-out: R232 Activity (EC50 range)
T3 construct: host or cells: HEK293T
T3 sequence (Q86WV6 whole entry H232R): as the sequence (Q86WV6 whole entry) above, with H232R counted along it
Method in brief: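 Clonal HEK293T cells stably expressing human STING R232 plus an ISRE/ISG54-driven luciferase reporter, 5×10^5 per well, stimulated with compounds for 20 h. Secreted luciferase in supernatant measured by luminescence; […].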

Structure (SMILES)	EC50 (IRF pathway; Homo sapiens, THP1-Dual)	EC50 (NF-κB pathway; Homo sapiens, THP1-Dual)	EC50 (hSTING(H232))	EC50 (hSTING(HAQ))	EC50 (WT/R232 STING protein)	EC50 (IRF pathway)	EC50 (NF-κB pathway)
CC1Oc2ccc(C(=O)NCc3c(F)cc(F)cc3F)cc2N(Cc2cc(F)cc(F)c2)C1=O (stereo not drawn) [Example 232, 2-Methyl-4-(3,5-difluorobenzvyl)-3-oxo-N-(2,4,6-trifluorobenzyl)-3,4-dihydro-2H-1,4-benzoxazine-6-carboxamide]	> 10 µM	> 10 µM	1 to 10 µM	1 to 10 µM	< 1 µM	–	–
C[C@H]1Oc2ccc(C(=O)NCc3c(F)cc(F)cc3F)cc2N(Cc2cc(F)cc(F)c2)C1=O [Example 233, (R)-4-(3,5-difluorobenzyl)-2-methyl-3-oxo-N-(2,4.,6-trifluorobenzyl)-3,4-dihydro-2H-benzo[b-1,4]oxazine-6-carboxamide]	> 10 µM	> 10 µM	1 to 10 µM	1 to 10 µM	< 1 µM	–	–
C[C@@H]1Oc2ccc(C(=O)NCc3c(F)cc(F)cc3F)cc2N(Cc2cc(F)cc(F)c2)C1=O [Example 234, (S)-4-(3,5-difluorobenzyl)-2-methyl-3-oxo-N-(2,4,6-trifluorobenzyl)-3,4-dihydro-2H-benzo[b-1,4]oxazine-6-carboxamide]	> 10 µM	> 10 µM	1 to 10 µM	1 to 10 µM	< 1 µM	–	–
C[C@@H]1Oc2ccc(C(=O)NCc3cc4ccccc4o3)cc2N(Cc2cc(F)cc(F)c2)C1=O [Example 235, (S)-N-(benzofuran-2-ylmethyl)-4-(3,5-difluorobenzyl)-2-methyl-3-oxo-3,4-dihydro-2H-benzo[b-1,4]oxazine-6-carboxamide]	1 to 10 µM	1 to 10 µM	1 to 10 µM	1 to 10 µM	< 1 µM	–	–
C[C@H]1Oc2ccc(C(=O)NCc3c(F)cc(F)cc3F)cc2N(Cc2cc(F)cc(F)c2)C1=O [Example 242, (R)-4-(3,5-difluorobenzyl)-2-methyl-3-oxo-N-(2,4,6-trifluorobenzyl)-3,4-dihydro-2H-benzo[b][1,4] oxazine-6-carboxamide]	–	–	> 10 µM	1 to 10 µM	< 1 µM	> 10 µM	> 10 µM
C[C@@H]1Oc2ccc(C(=O)NCc3c(F)cc(F)cc3F)cc2N(Cc2cc(F)cc(F)c2)C1=O [Example 243, (S)-4-(3,5-difluorobenzyl)-2-methyl-3-oxo-N-(2,4,6-trifluorobenzyl)-3,4-dihydro-2H-benzo[b][1,4] oxazine-6-carboxamide]	–	–	< 1 µM	< 1 µM	< 1 µM	> 10 µM	> 10 µM
O=C(NCc1c(F)cc(F)cc1F)c1ccc2c(c1)N(C(=O)c1c(F)cccc1Cl)CCS2 [Example 258, 4-(2-chloro-6-fluorobenzoyl)-N-(2,4,6-trifluorobenzyl)-3,4-dihydro-2H-benzo[b][1,4]thiazine-6-carboxamide]	> 10 µM	> 10 µM	> 10 µM	> 10 µM	1 to 10 µM	–	–
CC1Cc2ccc(C(=O)NCc3c(F)cc(F)cc3F)cc2N(Cc2c(F)cccc2Cl)C1=O (stereo not drawn) [Example 267, 1-(2-Chloro-6-fluorobenzyl)-3-methyl-2-oxo-N-(2,4,6-trifluorobenzyl)-1,2,3,4-tetrahydroquinoline-7-carboxamide]	1 to 10 µM	1 to 10 µM	< 1 µM	< 1 µM	< 1 µM	–	–
O=C(NCc1ccc(F)cc1)c1ccc2c(c1)N(Cc1c(F)cccc1Cl)C(=O)CC2 [Example 269, 1-(2-chloro-6-fluorobenzyl)-N-(4-fluorobenzyl)-2-oxo-1,2,3,4-tetrahydroquinoline-7-carboxamide]	> 10 µM	> 10 µM	> 10 µM	1 to 10 µM	< 1 µM	–	–
O=C(NCc1c(F)cc(F)cc1F)c1ccc2c(c1)N(Cc1c(F)cccc1Cl)C(=O)CC2 [Example 270, 1-(2-chloro-6-fluorobenzyl)-2-oxo-N-(2,4,6-trifluorobenzyl)-1,2,3,4-tetrahydroquinoline-7-carboxamide]	> 10 µM	1 to 10 µM	< 1 µM	1 to 10 µM	< 1 µM	–	–
CC1(C)CC(=O)N(Cc2cc(F)cc(F)c2)c2cc(C(=O)NCc3c(F)cc(F)cc3F)ccc21 [Example 271, 1-(3,5-difluorobenzyl)-4,4-dimethyl-2-oxo-N-(2,4,6-trifluorobenzyl)-1,2,3,4-tetrahydroquinoline-7-carboxamide]	1 to 10 µM	1 to 10 µM	< 1 µM	< 1 µM	< 1 µM	–	–
O=C(NCc1ccc(F)cc1F)c1ccc2c(n1)N(Cc1cc(F)cc(F)c1)C(=O)CC2 [Example 279, N-(2,4-difluorobenzyl)-8-(3,5-difluorobenzyl)-7-oxo-5,6,7,8-tetrahydro-1,8-naphthyridine-2-carboxamide]	> 10 µM	> 10 µM	> 10 µM	> 10 µM	1 to 10 µM	–	–
O=C(NCc1cc2ccccc2o1)c1ccc2c(n1)N(Cc1cc(F)cc(F)c1)C(=O)CC2 [Example 281, N-(benzofuran-2-ylmethyl)-8-(3,5-difluorobenzyl)-7-oxo-5,6,7,8-tetrahydro-1,8-naphthyridine-2-carboxamide]	> 10 µM	> 10 µM	1 to 10 µM	1 to 10 µM	1 to 10 µM	–	–
O=C(NCc1c(F)cc(F)cc1F)c1ccc2c(c1)N(Cc1cc(F)cc(F)c1)S(=O)(=O)CC2 [Example 284, 1-(3,5-Difluorobenzyl)-N-(2,4,6-trifluorobenzyl)-3,4-dihydro-1H-benzo[c][1,2]thiazine-7-carboxamide 2,2-dioxide]	> 10 µM	> 10 µM	> 10 µM	> 10 µM	< 1 µM	–	–
CC1Cc2ccc(C(=O)NCc3c(F)cc(F)cc3F)cc2N(Cc2cc(F)cc(F)c2)S1(=O)=O (stereo not drawn) [Example 285, 1-(3,5-Difluorobenzyl)-3-methyl-N-(2,4,6-trifluorobenzyl)-3,4-dihydro-1H-benzo[c][1,2]thiazine-7-carboxamide 2,2-dioxide]	> 10 µM	> 10 µM	1 to 10 µM	1 to 10 µM	1 to 10 µM	–	–
